Test results taken from patent publication US5728704A, “Substituted pyridmidines for control of diabetic complications” (Pfizer Inc., priority 1995, dated 1998).

What was measured:
sorbitol dehydrogenase [1] = target: T1, sorbitol dehydrogenase (Ovis aries, UniProt P07846); experiment: inhibition of sorbitol dehydrogenase in vitro (direct test); format: biochemical; conditions: tested directly on sorbitol dehydrogenase in vitro
T1 sequence (P07846 1-354): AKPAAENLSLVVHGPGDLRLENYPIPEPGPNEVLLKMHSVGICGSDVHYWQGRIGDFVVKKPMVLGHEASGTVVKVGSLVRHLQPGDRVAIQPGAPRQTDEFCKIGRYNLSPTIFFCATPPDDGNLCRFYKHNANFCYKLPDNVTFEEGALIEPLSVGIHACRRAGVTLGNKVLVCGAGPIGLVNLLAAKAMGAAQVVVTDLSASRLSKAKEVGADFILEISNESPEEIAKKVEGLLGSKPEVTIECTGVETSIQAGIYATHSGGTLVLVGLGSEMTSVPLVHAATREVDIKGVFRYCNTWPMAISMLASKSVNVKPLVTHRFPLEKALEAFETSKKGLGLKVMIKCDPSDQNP
Protocol: (§1) SDH activity was measured by a modification of the method described by U. Gerlach, Methodology of Enzymatic Analyses, edited by H. U. Bergmeyer, 3, 112-117 (1983). Aliquots of sera or urine were added to the assay system, which had final concentrations of reagents of 0.1M potassium phosphate buffer, pH 7.4, 5 mM NAD, 20 mM sorbitol, and 0.7 units/ml of sorbitol dehydrogenase. After incubation for 10 minutes at room temperature, the average change in sample absorbance was determined at 340 nm. SDH activity was presented as milliOD340 units/minute (OD340 =optical density at 340 nm).
The IC50 values indicate the concentration at which fifty percent inhibition of sorbitol dehydrogenase in vitro was observed.

[2] = tested on: sciatic nerve fructose and sorbitol; experiment: sciatic nerve fructose and sorbitol in streptozocin-diabetic rats after a single oral dose; format: in vivo, rat (male Sprague-Dawley); conditions: single oral dose 10, 50, 100 or 300 mg/kg, 4-6 hours after dosing (FIG. 4)
Protocol: (§2) Male Sprague-Dawley rats (350-400 g) were used for these experiments. Diabetes was induced in some of the rats by a tail vein injection of streptozocin, 85 mg/kg. Twenty-four hours later, 4 groups of diabetic rats were given a single dose of 4-[4-(N,N-dimethylsulfamoyl)-piperazino]-2-methylpyrimidine (10, 50, 100, or 300 mg/kg) by oral gavage. Animals were sacrificed 4-6 hours after dosing and blood and sciatic nerves were harvested. Tissues and cells were extracted with 6% perchloric acid.
(§3) Sorbitol in erythrocytes and nerves was measured by a modification of the method of R. S. Clements et al. (Science, 166: 1007-8, 1969). […] After incubation for 30 minutes at room temperature, sample fluorescence was determined on a fluorescence spectrophotometer with excitation at 366 nm and emission at 452 nm. After subtracting appropriate blanks, the amount of sorbitol in each sample was determined from a linear regression of sorbitol standards processed in the same manner as the tissue extracts.
(§4) Fructose was determined by a modification of the method described by M. Ameyama, Methods in Enzymology, 89: 20-25 (1982). […] After incubation for 60 minnutes at room temperature, sample fluorescence was determined on a fluorescence spectrophotometer with excitation at 560 nm and emission at 580 nm. […]

sorbitol dehydrogenase [3] = target: T1, sorbitol dehydrogenase; experiment: in vitro inhibition of sorbitol dehydrogenase by sera from dosed rats; format: biochemical; conditions: sera from rats dosed with the compound (FIG. 5)
Protocol: as §2, §1

sorbitol dehydrogenase [4] = target: T1, sorbitol dehydrogenase; experiment: in vitro inhibition of sorbitol dehydrogenase by urine from dosed rats; format: biochemical
Protocol: as §1

[5] = tested on: erythrocyte (red blood cell) fructose and sorbitol; experiment: erythrocyte fructose and sorbitol in streptozocin-diabetic rats after a single oral dose; format: in vivo, rat (male Sprague-Dawley); conditions: single oral dose 10, 50, 100 or 300 mg/kg
Protocol: as §2, §3, §4

Cc1nccc(N2CCN(S(=O)(=O)N(C)C)CC2)n1 [Compound 1, 4-[4-(N,N-dimethylsulfamoyl)-piperazino]-2-methylpyrimidine]
IC50 (sorbitol dehydrogenase [1]): 500 µM
sciatic nerve sorbitol [2]: increase in sorbitol
inhibition of SDH in vitro by sera from dosed rats (sorbitol dehydrogenase [3]): potently inhibited SDH in vitro in a dose dependent manner
inhibition of SDH with as little as 0.5 μl of urine (sorbitol dehydrogenase [4]; 0.5 μl of urine of dosed animals (FIG. 6)): strong inhibition
SDH inhibitory activity of urine compared with sera (sorbitol dehydrogenase [4]; urine (FIG. 6) compared with sera (FIG. 5)): even more potent source of SDH inhibitory activity
inhibition of SDH in vitro by urine of dosed animals (sorbitol dehydrogenase [4]; urine of animals dosed with the compound (FIG. 6)): potently inhibited SDH in vitro in a dose dependent manner
erythrocyte (RBC) fructose ([5]; 4-6 hours after dosing (FIG. 1)): dose dependently lowered
erythrocyte sorbitol ([5]; 4-6 hours after dosing (FIG. 2)): dose dependently raised
